Laboratory results taken from US10369138B2, “Monobactam organic compounds for the treatment of bacterial infections” (Novartis AG, priority 2014, dated 2019).
In brackets after ≈: the same amount, converted by molar mass. Read-outs that look alike come from different tables or passages of the source.

Tests used:
[1] = system: E. coli containing KPC-2; test: MIC by broth microdilution, E. coli containing KPC-2 (Ec KPC2 Iso); assay type: cell-based; settings: Escherichia coli, read-out: Ec KPC2 Iso (MIC), E. coli containing KPC-2 (carbapenemase from Klebsiella pneumoniae)
How it was run: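 Host E. coli BW25113 pspB carrying multicopy pBAD18-kan plasmid with constitutive TEM-promoter KPC-2 expression (periplasmic signal sequence); broth microdilution per CLSI in cation-adjusted Mueller-Hinton broth, inoculum ~5×10^5 CFU/mL, compounds twofold serially diluted from DMSO masters (10% DMSO in dilution series added).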

[2] = system: E. coli strain 25922; test: MIC by broth microdilution, E. coli strain 25922; assay type: cell-based
How it was run: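 CLSI broth microdilution in cation-adjusted Mueller-Hinton broth, inoculum about 5×10^5 CFU/mL, 10% DMSO from the diluted series, 20 h at 35-37° C. MIC is the lowest concentration preventing visible growth, read by eye and at 600 nm.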

[3] = Escherichia coli, 25922, E. coli strain 25922, read-out: Ec 25922 (MIC)

C[n+]1cccc(CNCc2cnn(C[C@@H]3[C@H](NC(=O)/C(=N\OC4(C(=O)O)CC4)c4csc(N)n4)C(=O)N3S(=O)(=O)O)n2)c1 [Example 137, (2R,3S)-3-((Z)-2-(2-aminothiazol-4-yl)-2-((1-carboxycyclopropoxy)-imino)acetamido)-2-((4-((((1-methylpyridin-1-ium-3-yl)methyl)amino)methyl)-2H-1,2,3-triazol-2-yl)methyl)-4-oxoazetidine-1-sulfonate]
MIC [1]: 0.5 µg/mL | MIC [2, 3]: 1 µg/mL

CC(C)(O/N=C(\C(=O)N[C@@H]1C(=O)N(S(=O)(=O)O)[C@@H]1CN1CCOC1=O)c1csc(N)n1)C(=O)O [Example 2, 2-(((Z)-(1-(2-aminothiazol-4-yl)-2-oxo-2-(((3S,4R)-2-oxo-4-((2-oxooxazolidin-3-yl)methyl)-1-sulfoazetidin-3-yl)amino)ethylidene)amino)oxy)-2-methylpropanoic acid]
MIC [1]: 0.5 µg/mL (≈ 0.961 µM) | MIC [2, 3]: 1 µg/mL (≈ 1.92 µM)

CC(C)(O/N=C(\C(=O)N[C@@H]1C(=O)N(S(=O)(=O)O)[C@@H]1CN1CCNC1=O)c1csc(N)n1)C(=O)O [Example 3, 2-(((Z)-(1-(2-aminothiazol-4-yl)-2-oxo-2-(((3S,4R)-2-oxo-4-((2-oxoimidazolidin-1-yl)methyl)-1-sulfoazetidin-3-yl)amino)ethylidene)amino)oxy)-2-methylpropanoic acid]
MIC [1]: 1 µg/mL (≈ 1.92 µM) | MIC [2, 3]: 2 µg/mL (≈ 3.85 µM)

N=C(NC1CNC1)c1ccc(OC[C@H](O/N=C(\C(=O)N[C@@H]2C(=O)N(S(=O)(=O)O)[C@@H]2Cn2cncn2)c2csc(N)n2)C(=O)O)cc1 [Example 68, (S)-2-(((Z)-(2-(((2R,3S)-2-((1H-1,2,4-triazol-1-yl)methyl)-4-oxo-1-sulfoazetidin-3-yl)amino)-1-(2-aminothiazol-4-yl)-2-oxoethylidene)amino)oxy)-3-(4-(N-(azetidin-3-yl)carbamimidoyl)phenoxy)propanoic acid]
MIC [1]: 0.25 µg/mL (≈ 0.369 µM) | MIC [2, 3]: 0.25 µg/mL (≈ 0.369 µM)

N=C(NCc1cnn(C[C@@H]2[C@H](NC(=O)/C(=N\OC3(C(=O)O)CC3)c3csc(N)n3)C(=O)N2S(=O)(=O)O)n1)NCC1CNC1 [Example 126, 1-(((Z)-(1-(2-aminothiazol-4-yl)-2-(((2R,3S)-2-((4-((3-(azetidin-3-ylmethyl)guanidino)methyl)-2H-1,2,3-triazol-2-yl)methyl)-4-oxo-1-sulfoazetidin-3-yl)amino)-2-oxoethylidene)amino)oxy)cyclopropanecarboxylic acid]
MIC [1]: 0.5 µg/mL (≈ 0.78 µM) | MIC [2, 3]: 0.5 µg/mL (≈ 0.78 µM)

Nc1nc(/C(=N/OC2(C(=O)O)CC2)C(=O)N[C@@H]2C(=O)N(S(=O)(=O)O)[C@@H]2Cn2ncc(CN3CC(N)C3)n2)cs1 [Example 106, 1-(((Z)-(2-(((2R,3S)-2-((4-((3-aminoazetidin-1-yl)methyl)-2H-1,2,3-triazol-2-yl)methyl)-4-oxo-1-sulfoazetidin-3-yl)amino)-1-(2-aminothiazol-4-yl)-2-oxoethylidene)amino)oxy)cyclopropanecarboxylic acid]
MIC [1]: ≤ 0.06 µg/mL | MIC [2, 3]: ≤ 0.06 µg/mL

N=C(NC1[C@H]2CNC[C@@H]12)c1ccc(OC[C@H](O/N=C(\C(=O)N[C@@H]2C(=O)N(S(=O)(=O)O)[C@@H]2Cn2cncn2)c2csc(N)n2)C(=O)O)cc1 (stereo partly drawn) [Example 81, (S)-2-(((Z)-(2-(((2R,3S)-2-((1H-1,2,4-triazol-1-yl)methyl)-4-oxo-1-sulfoazetidin-3-yl)amino)-1-(2-aminothiazol-4-yl)-2-oxoethylidene)amino)oxy)-3-(4-(N-((1R,5S,6s)-3-azabicyclo[3.1.0]hexan-6-yl)carbamimidoyl)phenoxy)propanoic acid]
MIC [1]: 0.125 µg/mL (≈ 0.178 µM) | MIC ([2]; Escherichia coli, 25922, read-out: Ec 25922 (MIC)): 0.125 µg/mL (≈ 0.178 µM)

CC(C)(O/N=C(\C(=O)N[C@@H]1C(=O)N(S(=O)(=O)O)[C@@H]1CN1CC[C@H](N)C1=O)c1csc(N)n1)C(=O)O [Example 76, 2-(((Z)-(2-(((2R,3S)-2-(((S)-3-amino-2-oxopyrrolidin-1-yl)methyl)-4-oxo-1-sulfoazetidin-3-yl)amino)-1-(2-aminothiazol-4-yl)-2-oxoethylidene)amino)oxy)-2-methylpropanoic acid]
MIC [1]: 0.5 µg/mL (≈ 0.937 µM) | MIC [2, 3]: 1 µg/mL (≈ 1.87 µM)

N=C(NCc1cnn(C[C@@H]2[C@H](NC(=O)/C(=N\OC3(C(=O)O)CC3)c3csc(N)n3)C(=O)N2S(=O)(=O)O)n1)N[C@H]1CCNC1 [Example 141, 1-(((Z)-(1-(2-aminothiazol-4-yl)-2-oxo-2-(((3S,4R)-2-oxo-4-((4-((3-((S)-pyrrolidin-3-yl)guanidino)methyl)-2H-1,2,3-triazol-2-yl)methyl)-1-sulfoazetidin-3-yl)amino)ethylidene)amino)oxy)cyclopropanecarboxylic acid]
MIC [1]: 0.5 µg/mL (≈ 0.78 µM) | MIC [2, 3]: 0.5 µg/mL (≈ 0.78 µM)

N=C(NCCCN)c1ccc(OC[C@H](O/N=C(\C(=O)N[C@@H]2C(=O)N(S(=O)(=O)O)[C@@H]2Cn2cncn2)c2csc(N)n2)C(=O)O)cc1 [Example 78, (S)-2-(((Z)-(2-(((2R,3S)-2-((1H-1,2,4-triazol-1-yl)methyl)-4-oxo-1-sulfoazetidin-3-yl)amino)-1-(2-aminothiazol-4-yl)-2-oxoethylidene)amino)oxy)-3-(4-(N-(3-aminopropyl)carbamimidoyl)phenoxy)propanoic acid]
MIC [1]: 0.125 µg/mL (≈ 0.184 µM) | MIC [2, 3]: ≤ 0.06 µg/mL

Nc1nc(/C(=N/OC2(C(=O)O)CC2)C(=O)N[C@@H]2C(=O)N(S(=O)(=O)O)[C@@H]2Cn2ncc(CNCC3CNC3)n2)cs1 [Example 85, 1-(((Z)-(1-(2-aminothiazol-4-yl)-2-(((2R,3S)-2-((4-(((azetidin-3-ylmethyl)amino)methyl)-2H-1,2,3-triazol-2-yl)methyl)-4-oxo-1-sulfoazetidin-3-yl)amino)-2-oxoethylidene)amino)oxy)cyclopropanecarboxylic acid]
MIC [1]: 0.5 µg/mL (≈ 0.835 µM) | MIC [2, 3]: 0.5 µg/mL (≈ 0.835 µM)

N=C(NCc1cnn(C[C@@H]2[C@H](NC(=O)/C(=N\OC3(C(=O)O)CC3)c3csc(N)n3)C(=O)N2S(=O)(=O)O)n1)N[C@H]1C[C@@H](N)C1 [Example 140, 1-(((Z)-(2-(((2R,3S)-2-((4-((3-((1 s,3S)-3-aminocyclobutyl)guanidino)methyl)-2H-1,2,3-triazol-2-yl)methyl)-4-oxo-1-sulfoazetidin-3-yl)amino)-1-(2-aminothiazol-4-yl)-2-oxoethylidene)amino)oxy)cyclopropanecarboxylic acid]
MIC [1]: 0.25 µg/mL (≈ 0.39 µM) | MIC [2, 3]: 0.25 µg/mL (≈ 0.39 µM)

N=C(NCc1cnn(C[C@@H]2[C@H](NC(=O)/C(=N\OC3(C(=O)O)CC3)c3csc(N)n3)C(=O)N2S(=O)(=O)O)n1)N1CC(CN)C1 [Example 127, 1-(((Z)-(2-(((2R,3S)-2-((4-((3-(aminomethyl)azetidine-1-carboximidamido)methyl)-2H-1,2,3-triazol-2-yl)methyl)-4-oxo-1-sulfoazetidin-3-yl)amino)-1-(2-aminothiazol-4-yl)-2-oxoethylidene)amino)oxy)cyclopropanecarboxylic acid]
MIC [1]: 0.25 µg/mL (≈ 0.39 µM) | MIC [2, 3]: 0.25 µg/mL (≈ 0.39 µM)

NCCNCc1cnn(C[C@@H]2[C@H](NC(=O)/C(=N\OC3(C(=O)O)CC3)c3csc(N)n3)C(=O)N2S(=O)(=O)O)n1 [Example 102, 1-(((Z)-(2-(((2R,3S)-2-((4-(((2-aminoethyl)amino)methyl)-2H-1,2,3-triazol-2-yl)methyl)-4-oxo-1-sulfoazetidin-3-yl)amino)-1-(2-aminothiazol-4-yl)-2-oxoethylidene)amino)oxy)cyclopropanecarboxylic acid]
MIC [1]: 0.25 µg/mL (≈ 0.437 µM) | MIC [2, 3]: 0.25 µg/mL (≈ 0.437 µM)
